A short description of data set [1]: Body weight in BT474 xenograft study. It is filed as in vivo, NOD/SCID mice. The note with it: trastuzumab or ADC Example 1 2.5 or 5 mg/kg; Example 12 2 mg/kg (Group 6). As for the experimental part:
During the study, body weights were measured three times weekly for all animals. Animals were given Diet Gel for the entire duration on the study.

Data set [2] concerns BT474 breast cancer cells. Briefly: Orthotopic BT474 breast cancer xenograft model. It is filed as in vivo, NOD/SCID mice. The note with it: 2.0 mg/kg IV, 2 days dosing then 5 day holiday (Group 6), stopped at day 13.
Protocol: NOD/SCID mice were implanted with estrogen pellets (17β-estradiol, 60 day release, 0.36 mg) subcutaneously in the right flank one day before the tumour inoculation. On day −8 each mouse was then injected in the right mammary fat pad with 1×10^7 viable BT474 breast cancer cells resuspended in 0.2 mL of Phosphate Buffered Saline mixed with matrigel (1:1). Mice were assigned to treatment groups when tumour volumes averaged 149.78 mm^3 on study day 0. […] The study was terminated on Study Day 35.
Each group was comprised of 10 mice. Tumour volumes in mice were measured three times per week and tumour volume was calculated using the formula 0.5 (L×W^2). […] Statistical analyses were carried out on tumour readings for Groups 1, 2, 3, 4 and 5 up to Study Day 23 (after this point >50% of the animals within one of the study groups were lost; Group 2) using two-way ANOVA, or a Mixed-Effects model was fitted when values were missing from groups (PRISM GraphPad Software Inc.).
Tumour Growth Inhibition, ΔTGI %=((mean(C)−mean (CO))−(mean(T)−mean(TO)))/(mean(C)−mean(CO))×100% where T is the mean tumour volume on the measurement day and TO is the mean tumour volume of the treated group on Study Day 0. C is the mean tumour volume of the control Group 1 mice on the measurement day and CO is the mean tumour volume on Study Day 0.
In data set [3] the test system is DOHH-2 tumor cells. Briefly: Subcutaneous xenograft DOHH-2 lymphoma model. It is filed as in vivo, CB17/SCID mice. The settings on record: intraperitoneal dosing (Example 5: 7 or 20 mg/kg; Example 12: 0.7 or 2 mg/kg), QD cycles. As for the experimental part: The in vivo efficacy of certain Example compounds was assessed in a subcutaneous xenograft DOHH-2 Lymphoma Model using 10 female 6-8 week old CB17/SCID Mice. Each mouse was inoculated subcutaneously at the right front region with DOHH-2 tumor cells (5×10^6) in 0.1 ml of PBS mixed with matrigel (1:1 PBS:matrigel) for tumor development. The test compound administration started once the mean tumor size reached approximately 100-150 mm^3.
Compounds were administered either IP (vehicle 10 mM sodium phosphate+0.2% Tween-80 (pH7.4) or orally (vehicle 15 Na2HPO4 buffer (10 mM) (pH 4.5)+0.2% tween 80). Tumor volumes were measured in two dimensions using a caliper, and the volume expressed in mm^3 using the formula: V=(L×W×W)/2, where V is tumor volume, L is tumor length (the longest tumor dimension) and W is tumor width (the longest tumor dimension perpendicular to L).
Mice were dosed with Example 21 orally (12.5 or 25 mg/kg) once a day for 9 consecutive days (FIG. 3). Example 5 was dosed intraperitoneally (7 or 20 mg/kg) in a cycle consisting of administration QD for three days followed by a three day no-dosing period followed by QD dosing for a further three days (FIG. 4). Example 12 was dosed intraperitoneally (0.7 or 2 mg/kg) in a cycle consisting of administration QD for three days followed by a three day no-dosing period followed by QD dosing for a further three days (FIG. 5). In a separate study Example 12 was dosed at […] in a cycle consisting of administration QD for two days followed by either four or six day no-dosing period, and this cycle was repeated three times (FIG. 6).

The test system of data set [4] is mouse hepatocytes. Briefly: Hepatocyte metabolic stability, mouse. The data set is classed as in vitro ADME. How it is done:
Biological Example 6: Rat hepatocyte half life Certain Example compounds and Comparator Compound 1 were tested for metabolic stability in a metabolic assay using mouse- and rat-derived hepatocytes. Compounds having good metabolic stability in the assay are expected to be especially useful as agents for preventing and/or treating cancer, by having a long half-life in human patients.
Frozen pooled rat and mouse hepatocytes obtained from LifeTechnologies were thawed and purified according to the manufacturer's instructions. The test compound (4 mM) in DMSO was diluted with acetonitrile to provide a 100 μM sub-stock then further diluted with pH 7.4 Krebs-Henseleit buffer (supplemented with CaCl2, NaHCO3, HEPES, fructose and glycine) to provide a 2 μM working solution. 25 μL of working solution was incubated at 37° C., treated with 25 μL of rat or mouse hepatocyte suspension (containing 1×10^6 cells/mL) and incubated at 37° C. with 5% CO2 level at 95% relative humidity. Wells were incubated for an appropriate time (0, 15, 30, 45, 60 and 75 min) then quenched with 250 μL of acetonitrile containing reference standards diltiazem, 7-ethoxycoumarin and propranolol). The plates were shaken, sonicated for 5 min then cooled to 4° C. until all sampling was complete. All plates were centrifuged at 4000 rpm for 20 min to pellet the debris. 110 μL supernatant was diluted 110 μL water and quantitated using LC-MS/MS.
A linear regression curve was fitted to a plot of natural logarithm (In) of AUC against time. The T-half (min)=0.693/slope

The record followed here is US12599676B2, “Cytotoxic imidazo[1,2-A]pyridine compounds and their use in therapy” (MyricX Pharma Limited, priority 2022, dated 2026).

As to `CNCc1cnc2ccc(-c3ccc(F)c(F)c3OCCc3c(C(O)C(C)(C)C)nn(C)c3C)cn12` (single isomer, unassigned) [Example 12, 1-(4-(2-(2,3-difluoro-6-(3-((methylamino)methyl)imidazo[1,2-a]pyridin-6-yl)phenoxy)ethyl)-1,5-dimethyl-1H-pyrazol-3-yl)-2,2-dimethylpropan-1-ol], in data set [1], the “body weights compared to vehicle control” value is listed as “decreased significantly”. The tumour size entry in data set [2] is “reduced tumour size”. In addition, the “tumour volume compared to vehicle” value in data set [3] was “significant reduction in tumour volume or reduced growth in tumour volume”.

Take `Cc1c(CCOc2cc(Cl)ccc2-c2ccc3ncc(CCN)n3c2)c(C(=O)N(C)C)nn1C` [Comparator Compound 1, 4-(2-{2-[3-(2-aminoethyl)imidazo[1,2-a]pyridin-6-yl]-5-chlorophenoxy}ethyl)-N,N,1,5-tetramethyl-1H-pyrazole-3-carboxamide, reference compound]: the “mHeps t^1/2” value in data set [4] is recorded as 127.68 min.
